The values below come from PMC9610207 (Viruses, 2022).

Molecules are shown by their SMILES.

Experiment [1] has as its system SARS-CoV-2. Type of experiment: cell-based.
Experiment [2] has as its system SARS-CoV-2. The settings on record: cited from earlier work.
Experiment [3] relates to SARS-CoV-2. The settings on record: cited from earlier work. This is another data set of the same source.
Experiment [4] concerns SARS-CoV-2. Format: cell-based. This is another data set of the same source.

Regarding `CCN(CC)CCCC(C)Nc1ccnc2cc(Cl)ccc12` (stereo not shown) [chloroquine, Chloroquine], the “viral infection in Calu-3 with chloroquine” value in the experiment on SARS-CoV-2 [1] is “resistant”. For the same compound, in the experiment on SARS-CoV-2 [2], the “SARS-CoV-2 infection in Calu-3, previous studies” value is reported as “not”. The “SARS-CoV-2 infection in VeroE6, previous studies” value with SARS-CoV-2 [3] is recorded as “inhibited”. Also, in the experiment with SARS-CoV-2 [4], the “viral infection in VeroE6 with chloroquine” value is reported as “strongly inhibited”.
